# From patent US10124111B2, “Small molecule dye for molecular imaging and photothermal therapy” (The Board of Trustees of the Leland Stanford Junior …, priority 2015, dated 2018)
# Key:
# [1] = Optical characterization (emission spectrum, quantum yield, photostability); type: physicochemical; details: 808 nm excitation laser
# Description: The NIR fluorescence spectrum was taken using a home-built NIR spectroscopy setup. The excitation source was a 200-W ozone-free mercury/xenon lamp (Oriel), which was dispersed by a monochromator (Oriel) to generate an excitation line with a bandwidth of 15 nm. The excitation light was allowed to pass through the solution sample in a 1-mm-path cuvette (Starna Cells, Inc.), and the emission was collected in a transmission geometry. The […] was collected in the 790-1500 nm emission range. The emitted light was directed into a spectrometer (Acton SP2300i) equipped with a liquid-nitrogen-cooled InGaAs linear array detector (Princeton OMA-V). Spectra were corrected post-collection to account for the sensitivity of the detector and extinction feature of the filter. Photostability was determined by spiking CH1055-PEG into serum, PBS, and DI and exposing it in a 1-mm path length cuvette (Starna Cells, Inc.) to continuous 808 nm excitation at a power density of 0.3 W/cm^2 and taking images every 10 seconds for ˜1 hour. Stability was determined by measuring the ROI and comparing the fluorescence intensity to the starting fluorescence signal.
# In order to further increase solubility, the carboxylic acid groups of CH1055 were PEGylated with 2 kDa PEG-NH2 through EDC/NHS chemistry.
# [2] = Photoacoustic imaging analysis of phantoms; type: physicochemical
# Description: For studying the PAI properties of the compound, a cuboid container was half filled with 1% agarose gel to half depth. Different concentrations of compounds aqueous solutions were filled into polyethylene capillaries and then the capillaries were laid on the surface of solidified agarose gel. The capillaries were further covered with thin 1% agarose gel to make the surface smooth. PA spectra and PA/US coregistered images were acquired with a LAZR commercial instrument (VevoLAZR; VisualSonics). It is equipped with a LZ-250 linear array transducer and a tunable Nd:YAG laser system (680-970 nm). In our system, the Vevo LAZR PAI System with a laser at excitation wavelength of 700 nm and a focal depth of 10 mm was used to acquire PA and US images. […] Acquisition rate of 5 frames per second was used for all the experiments. The photoacoustic gain was kept at 42 dB, dynamic range at 18 dB and center frequency of 21 MHz for all studies. US and PA images were obtained sequentially. The PA signals reported were the average pixel intensities from within the Regions of Interest (ROIs). Normalization and quantification of the images were carried out using ImageJ.
# Fluorophores with the present design not only have NIR II fluorescence, but also show strong absorption in the NIR-I region and show promise for in vivo photoacoustic imaging. […]
# [3] = NIR-II fluorescence brightness and quantum yield in DI, PBS, FBS, serum and serum proteins; type: physicochemical
# Description: The compound contains a taurine (2-aminoethanesulfonic acid) group at the carboxyl linkers of CH1055. […] Sulfonating the present NIR-II dyes is a general procedure that can be applied to a number of the NIR-II small molecules described above to increase their solubility.
# The absorbance value of both fluorophores (OD 0.02) in each respective media is equivalent at the excitation wavelength (808 nm) to compare relative quantum yields. NIR-IIa fluorescent image of a C57 mouse brain (1300 LP) after an intravenous injection of equivalent doses of CH-4T (200 ms exposure; Panel B) and of CH1055-PEG (1 s exposure; Panel D). The image intensity scales have been compensated to account for the differences in the exposure times needed to clearly resolve brain vasculature.
# (§1) This fluorescence enhancement produces a serum quantum yield of up to ˜10% which is on par with ICG and is among the highest quantum yields of all NIR-II fluorophores (including carbon nanotubes). While soluble in PBS, the quantum yield of CH-4T was determined to be ˜0.07%, yet is enhanced ˜60× through complexation with serum proteins in FBS.
# Increased brightening of CH-4T also results from protein interactions. A fluorescence emission spectrum of CH1055-PEG and CH-4T in both FBS and PBS was determined. […] The increased intensity (40,000 a.u. around 1000 nm) for CH-4T in FBS was observed.
# While CH-4T complexed with proteins produces an incredibly bright contrast agent, pretreatment of the proteins prior to complexation and subsequent isolation of the bright dye-protein complexes can introduce a further increase in brightness. For instance, a short 10 minutes of horn sonication of FBS prior to mixing with CH-4T followed by 10 minutes of heating in a hot water bath at ˜80° C. can boost the brightness of the CH-4T-protein complex by ˜3-4-fold. The effects on the fluorescence emission spectrum of heating and pre-horn sonicating can be seen while the brightness difference of an FBS-CH-4T solution before and after treatment (data not shown). […]
# Aqueous solubility = type: physicochemical; details: water / PBS
# [4] = Preliminary animal imaging of CH-4T excretion; type: in vivo
# Description: It is a small molecule dye similar to ICG, Cy5, and IR800, and enables easier access to NIR-II imaging, as it doesn't require a specialized knowledge of nanomaterials which make up the majority of NIR-II fluorophores.
# human and bovine albumin = assay: Binding of CH-4T to serum proteins; details: whole blood, HDL
# Method: as §1
# [5] = system: shoulder xenograft U87MG tumors; assay: Lymph node / lymphatic vasculature and tumor imaging after intradermal injection; type: in vivo, immunodeficient nude mice; details: intradermal injection near base of tail
# Description: An emerging fluorescent imaging application of ICG currently undergoing clinical trials is in detecting sentinel lymph nodes (SLN) for surgical resection.(28-30) Selectively removing sentinel lymph nodes alleviates lymphedema and other ailments that would be caused by total lymph node removal performed to prevent cancer metastasis. Fluorescent imaging has many benefits compared to the more traditional detection means that include injecting a colored dye, a radioisotope, or a combination of both. ICG is typically injected near a tumor to visualize the lymphatic vessels draining the tumor as well as the sentinel lymph nodes. […] Immediately after injection, CH1055-PEG drainage into the internodal collecting lymphatic vasculature and the inguinal lymph node became apparent. […] (data not shown)
# The gradual increase in fluorescence emanating from the tumor occurred while all lymphatic vessels and nodes were still visible.
smiles,measurement,setting,value
O=C(O)CCc1ccc(N(c2ccc(CCC(=O)O)cc2)c2ccc(-c3c4c(c(-c5ccc(N(c6ccc(CCC(=O)O)cc6)c6ccc(CCC(=O)O)cc6)cc5)c5nsnc35)N=S=N4)cc2)cc1 [CH1055],peak fluorescent emission wavelength,[1],~1055 nm
same,NIR-I absorption maximum,[2],700 nm
same,wavelength of maximum photoacoustic signal,"[2]; NIR pulsed laser, 680-970 nm scan",700 nm
O=C(CCc1ccc(N(c2ccc(CCC(=O)NCCS(=O)(=O)O)cc2)c2ccc(-c3c4c(c(-c5ccc(N(c6ccc(CCC(=O)NCCS(=O)(=O)O)cc6)c6ccc(CCC(=O)NCCS(=O)(=O)O)cc6)cc5)c5nsnc35)N=S=N4)cc2)cc1)NCCS(=O)(=O)O [CH-4T],quantum yield,[3]; in PBS,~0.07%
same,serum quantum yield,"[3]; in serum, complexed with serum proteins",≤ 10%
same,quantum yield,"[3]; with treated FBS (sonicated, heated)",~13%
same,aqueous solubility,Aqueous solubility,highly soluble
same,excretion kinetics,[4],resemble that of ICG
same,binding to serum proteins,human and bovine albumin,strong binding
"CC1(C)C(/C=C/C=C/C=C/C=C2\N(CCCCS(=O)(=O)O)c3ccc4ccccc4c3C2(C)C)=[N+](CCCCS(=O)(=O)[O-])c2ccc3ccccc3c21 [ICG, indocyanine green]",liver signal after intradermal injection,[5],obvious liver signal
same,tumor fluorescence after intradermal injection,[5],little tumor signal was observed
